{"source": "patent US20150045610A1", "about": "“METHOD OF MODIFYING SPERMATOGENESIS, SPERMIOGENESIS AND/OR FERTILITY IN MAMMALS” (Monell Chemical Senses Center, priority 2012, published 2015)", "target": "T1, humanized mhT1R3 (Homo sapiens, UniProt Q7RTX0, A109T/A120V/A176D/A197V/A198V/A228S/A231N/A248T/A280V/A282S/A302S/A412V/A417V/A46T/A537T/C375D/D124S/D249S/D250G/D364H/D419E/D470T/D491G/D88A/DEL352-352/DEL488-489/E172D/E199T/E203N/E217D/E356N/E45S/E481Q/E505D/E525K/E545Q/F540P/F555L/G168S/G205S/G311T/G314N/G355L/G360D/G414H/G438R/G439D/G463S/G50T/G542N/H261R/H278R/H281Y/H332P/I485M/I536F/INS376MLQNLSSG/K32Q/K339E/K422L/K494V/K86G/L173R/L245Q/L272V/L29F/L354S/L385Q/L433M/L458M/L483S/L71F/L74M/M151L/M315I/M318V/M31A/N285S/N386L/N532H/N68L/P112S/P246H/P335S/P416H/P420H/P441T/P60I/Q221E/Q257L/Q317R/Q330L/Q336H/Q359L/Q372R/Q418S/Q504K/Q531K/R123Q/R247D/R252Q/R291G/R30K/R357A/R443Q/R467V/R473T/R479Q/R482Q/R486Y/R498Q/R52N/R550K/R553A/R556P/R560K/R56Q/S251Q/S267K/S289H/S290H/S392A/S446A/S447E/S464P/S477T/S490P/S53Q/S559P/S58N/S67P/T195Q/T346A/T377L/T390I/T434S/T480L/T63N/V152I/V277A/V366M/V36I/V381L/V393T/V437A/V465T/V61P/W72L)", "T1 construct": "the extracellular domain is of mouse origin and the transmembrane and intracellular domains of human origin; mouse T1R3 extracellular domain (fusion partner replacing the human extracellular domain); expressed in transfected cells; host or cells: transgenic Line 7c mice (T1R3-/-, Gus-/-, mhT1R3+/-)", "T1 sequence (Q7RTX0 with tags, fused parts or gaps L29F/R30K/M31A/K32Q/V36I/E45S/A46T/G50T/R52N/S53Q/R56Q/S58N/P60I/V61P/T63N/S67P/N68L/L71F/W72L/L74M/K86G/D88A/A109T/P112S/A120V/R123Q/D124S/M151L/V152I/G168S/E172D/L173R/A176D/T195Q/A197V/A198V/E199T/E203N/G205S/E217D/Q221E/A228S/A231N/L245Q/P246H/R247D/A248T/D249S/D250G/S251Q/R252Q/Q257L/H261R/S267K/L272V/V277A/H278R/A280V/H281Y/A282S/N285S/S289H/S290H/R291G/A302S/G311T/G314N/M315I/Q317R/M318V/Q330L/H332P/P335S/Q336H/K339E/T346A/DEL352-352/L354S/G355L/E356N/R357A/Q359L/G360D/D364H/V366M/Q372R/C375D/INS376MLQNLSSG/T377L/V381L/L385Q/N386L/T390I/S392A/V393T/A412V/G414H/P416H/A417V/Q418S/D419E/P420H/K422L/L433M/T434S/V437A/G438R/G439D/P441T/R443Q/S446A/S447E/L458M/G463S/S464P/V465T/R467V/D470T/R473T/S477T/R479Q/T480L/E481Q/R482Q/L483S/I485M/R486Y/DEL488-489/S490P/D491G/K494V/R498Q/Q504K/E505D/E525K/Q531K/N532H/I536F/A537T/F540P/G542N/E545Q/R550K/R553A/F555L/R556P/S559P/R560K limits assumed)": "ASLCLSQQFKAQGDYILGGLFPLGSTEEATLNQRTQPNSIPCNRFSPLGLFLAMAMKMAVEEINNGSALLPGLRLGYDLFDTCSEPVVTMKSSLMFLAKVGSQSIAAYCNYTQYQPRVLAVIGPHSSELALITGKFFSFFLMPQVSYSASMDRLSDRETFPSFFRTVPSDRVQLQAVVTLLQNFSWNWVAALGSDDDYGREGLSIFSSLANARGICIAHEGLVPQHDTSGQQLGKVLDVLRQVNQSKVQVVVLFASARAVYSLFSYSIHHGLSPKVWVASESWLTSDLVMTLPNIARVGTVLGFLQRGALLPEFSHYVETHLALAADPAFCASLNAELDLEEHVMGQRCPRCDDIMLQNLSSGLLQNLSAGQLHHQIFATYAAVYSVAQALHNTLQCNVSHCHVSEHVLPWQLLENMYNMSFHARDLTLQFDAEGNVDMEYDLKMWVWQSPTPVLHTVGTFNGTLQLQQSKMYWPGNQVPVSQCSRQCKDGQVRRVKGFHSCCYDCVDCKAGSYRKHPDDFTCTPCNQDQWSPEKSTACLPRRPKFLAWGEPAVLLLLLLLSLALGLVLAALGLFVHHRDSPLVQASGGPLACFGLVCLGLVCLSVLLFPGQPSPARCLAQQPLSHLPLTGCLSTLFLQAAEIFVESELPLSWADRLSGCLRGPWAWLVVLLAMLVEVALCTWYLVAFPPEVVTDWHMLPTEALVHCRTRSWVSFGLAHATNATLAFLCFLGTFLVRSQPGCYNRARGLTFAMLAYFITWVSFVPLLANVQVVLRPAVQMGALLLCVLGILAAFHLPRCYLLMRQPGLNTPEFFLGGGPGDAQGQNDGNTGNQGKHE", "experiment": "T1R3 pharmacological block with clofibrate diet (male reproduction)", "format": "in vivo, mouse", "conditions": "line 7c males on clofibrate diet, mated with WT females", "procedure": "Matched groups (six males each) of WT and line 7c mice (expressing the chimerical mhT1R3 transgene on a T1R3/α-gustducin double-null background), 3-6 months old, were fed the indicated diets for 4-6 weeks. Each genotype was tested in two groups, one on the regular diet and one on a test diet with clofibrate. An additional group of males stayed on the test diet for another 4-6 weeks, during which time they were mated with WT females to determine whether the pharmacological intervention was effective. Then the animals were allowed to recover on the regular diet for an additional 4 weeks after the end of the treatment (half-time for total sperm turnover in mice), and again were tested for their reproductive capacity, and then their tissues were analyzed. […]\nWe observed spermatozoa after clofibrate treatment represent cells that were able to escape the inhibition of clofibric acid, most likely due to very fast clearance and fluctuating levels in rodents. […] Therefore, we measured sperm concentration as an indicator of efficiency of the pharmacological block and to be able to determine the concentration that results in effective sterility. We analyzed testicular morphology, sperm production, sperm motility and sperm function in in vitro fertilization after feeding these animals with the lipid lowering drug clofibrate. […]", "data": [{"smiles": "CC(C)(Oc1ccc(Cl)cc1)C(=O)O", "note": "[clofibric acid]", "values": [{"measurement": "male fertility", "value": "significantly affected male fertility"}]}]}
